The values below come from article PMC11601558, “SLC6A19 inhibition facilitates urinary neutral amino acid excretion and lowers plasma phenylalanine” (JCI Insight, 2024).

For assay [1], the system named is healthy volunteers. Kind of assay: Urine amino acid excretion in healthy volunteers (pharmacodynamics). The assay is classed as in vivo, human. On the procedure: The effect of JNT-517 on plasma and urine AA levels was measured using an ultra-performance liquid chromatography mass spectrometry assay following 6-aminoquinolyl-N-hydroxysuccinimidyl carbamate (AQC) derivatization. For the SAD study, plasma samples were collected on day –1 and day 1 predose, as well as 24, 48, and 72 hours after dosing. A first morning void urine sample on Days –1 and 1 predose, as well as 2 pooled urine samples 0–8 hours after and 8–24 hours after dose were also collected following study drug administration. For the MAD study, plasma samples were collected on day –1, 1, 7, and 14 predose, as well as day 14, 24 hours after dosing. A first morning void urine samples on day –1, 1, 7, and 14 as well as 2 pooled urine samples 0–8 hours and 8–24 hours after dose on days 1, 7, and 14 were also collected following JNT-517 or placebo administration. Study participants in SAD and MAD cohorts were dosed in the morning following an overnight fast of at least 8 hours and were provided the following meals in relation to dosing times: breakfast after the morning dose, lunch 4 hours after morning dose, optional snack in the afternoon 8 hours after the morning dose and after the second dose for MAD cohorts dosed BID, dinner approximately 10 hours after the morning dose and at least 2 hours after the second dose for MAD cohorts dosed BID. Predose plasma amino acids were drawn after a minimum of 8 hours fasting overnight and after-dose levels were drawn after > 1.5 hours fasting. Resulting plasma and urine amino acid concentration measurements, as well a total amino acid excretion over a time period were summarized using appropriate descriptive statistics and compared with either predose levels or placebo-dose values. Tryptophan was not included in the amino acid panel due to analytical limitations.
IC50 values for transport inhibition in cells overexpressing SLC6A19 and TMEM27 were calculated using a 4-parameter logistic regression in Collaborative Drug Discovery (CDD). Reported IC50 values are geometric means of 4–6 independent experiments. For postmortem intestinal transport assays, single outliers of quadruplicate replicates were excluded from the calculation if a signal value’s distance to the mean exceeded 35% of the signal average. The IC50 values of individual experiments were calculated with a 3- or 4-parameter logistic regression using GraphPad Prism 9. The reported IC50 value represents the geometric mean of n = 5 experiments from 3 individual donors. Statistical comparison of urinary Phe excretion in Pah^enu2 mice treated with vehicle or JN-170 was conducted using 1-way analysis of variance (ANOVA) with Tukey’s post hoc comparison. Statistical analysis of baseline-adjusted plasma Phe in mice treated with vehicle or JN-170 was determined by 2-way ANOVA with Dunnett’s post hoc comparison. All statistical analyses were performed using GraphPad Prism 9. For clinical studies, group sizes were not determined based on statistical power calculations. Statistical significance of pharmacodynamic results was not assessed. Values are reported as mean (urinary Phe excretion, T1/2, Cl/F), geometric mean (Cmax/D, AUC0-inf/D), or median (Tmax).

In assay [2] the target is T1, SLC6A19 (Homo sapiens, UniProt Q695T7).
T1 construct: human intestinal epithelial cells with endogenous expression levels of SLC6A19; tissue AnaBios; host or cells: epithelial cells scraped from distal jejunum of human postmortem intestine (3 male donors)
The assay can be described thus: SLC6A19 glutamine transport assay in human postmortem intestinal epithelial cells. In kind it is cell-based. The settings on record: endogenous SLC6A19; geometric mean n = 5, 3 donors; 95% CI 33–197 nM. The source says: Human postmortem intestines from 3 male donors (ages 23–36 years) were provided by AnaBios. Following trimming of excess fat, the distal part of the jejunum was dissected into tissue sections of approximately 100 cm^2 and further processed on ice. These sections contained an estimated approximately 250 million epithelial cells ([28], [29]). Epithelial cells were scraped off each tissue section with a tissue scraper and collected in ice-cold Hank’s balanced salt solution (HBSS). Following centrifuging for 5 min at 300g at 4°C, the supernatant was aspirated and the cell pellet was washed 3–6 times by resuspending in ice-cold HBSS (Thermo Fisher Scientific). […]
Human postmortem epithelial cells isolated from small intestine were centrifuged for 5 minutes at 300g and 4°C and resuspended in Krebs buffer (140 mM sodium chloride, 4.7 mM KCl, 2.5 mM CaCl2, 1.2 mM MgCl2, 11 mM HEPES, 10 mM glucose, pH 7.4) at a density of 7.5 × 10^6 cells/mL. […] The uptake of 2,3,4-^3H–labeled L-glutamine was measured on a Microbeta^2 microplate counter (PerkinElmer).
IC50 values for transport inhibition in cells overexpressing SLC6A19 and TMEM27 were calculated using a 4-parameter logistic regression in Collaborative Drug Discovery (CDD). […] The IC50 values of individual experiments were calculated with a 3- or 4-parameter logistic regression using GraphPad Prism 9. […]

T1 sequence (Q695T7 whole entry): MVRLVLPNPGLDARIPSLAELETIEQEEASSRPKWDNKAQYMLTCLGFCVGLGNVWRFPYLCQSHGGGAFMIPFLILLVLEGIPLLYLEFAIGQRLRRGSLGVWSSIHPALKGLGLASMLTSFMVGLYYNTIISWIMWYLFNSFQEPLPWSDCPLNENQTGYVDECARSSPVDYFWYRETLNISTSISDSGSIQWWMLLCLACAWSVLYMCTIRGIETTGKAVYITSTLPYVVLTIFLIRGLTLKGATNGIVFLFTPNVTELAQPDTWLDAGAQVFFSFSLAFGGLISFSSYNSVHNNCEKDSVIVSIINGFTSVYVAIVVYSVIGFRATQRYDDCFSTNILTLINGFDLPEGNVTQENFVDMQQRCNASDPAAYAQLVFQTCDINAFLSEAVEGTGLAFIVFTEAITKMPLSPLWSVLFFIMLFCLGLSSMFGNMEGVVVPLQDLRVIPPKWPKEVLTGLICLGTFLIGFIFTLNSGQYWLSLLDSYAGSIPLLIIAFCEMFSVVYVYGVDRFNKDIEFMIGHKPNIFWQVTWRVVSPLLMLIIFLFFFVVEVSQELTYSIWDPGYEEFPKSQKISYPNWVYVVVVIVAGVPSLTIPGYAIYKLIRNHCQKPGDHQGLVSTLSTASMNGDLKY
T1 sequence (Q9BYF1 18-805 partner): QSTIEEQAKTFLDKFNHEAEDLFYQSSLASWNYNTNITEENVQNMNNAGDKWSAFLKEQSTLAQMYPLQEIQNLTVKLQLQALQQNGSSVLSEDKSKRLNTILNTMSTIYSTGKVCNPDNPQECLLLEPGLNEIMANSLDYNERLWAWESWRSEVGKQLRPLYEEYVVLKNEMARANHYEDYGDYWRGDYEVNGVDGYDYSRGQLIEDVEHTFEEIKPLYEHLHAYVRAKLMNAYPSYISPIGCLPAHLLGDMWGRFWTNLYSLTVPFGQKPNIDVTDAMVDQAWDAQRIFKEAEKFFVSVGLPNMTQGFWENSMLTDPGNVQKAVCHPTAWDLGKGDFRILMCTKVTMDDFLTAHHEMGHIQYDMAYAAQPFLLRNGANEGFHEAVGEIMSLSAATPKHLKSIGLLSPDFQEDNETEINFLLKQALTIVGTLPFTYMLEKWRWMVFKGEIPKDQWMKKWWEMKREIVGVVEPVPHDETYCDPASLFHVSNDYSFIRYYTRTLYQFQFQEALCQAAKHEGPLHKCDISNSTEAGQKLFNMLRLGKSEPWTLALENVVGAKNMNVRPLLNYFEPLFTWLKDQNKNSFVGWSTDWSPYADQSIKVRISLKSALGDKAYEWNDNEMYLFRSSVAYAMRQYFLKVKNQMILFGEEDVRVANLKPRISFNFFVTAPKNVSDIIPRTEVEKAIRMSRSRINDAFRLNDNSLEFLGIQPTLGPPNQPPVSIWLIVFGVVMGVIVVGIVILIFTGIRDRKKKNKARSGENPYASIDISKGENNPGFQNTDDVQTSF

For `NC(=O)N1CCC[C@@H](N(C(=O)NCc2ccc(OC(F)(F)F)cc2F)C2CC2)C1` [JNT-517], in assay [1] (MAD day 14, 75 mg BID), the “24 hour Phe excretion, mean ± SD” value is on record as 89 ± 34 mg; the “Phe excreted from 0–8 hours, mean ± SD” value was 32 ± 20 mg; the “urine Phe excreted from 8–24 hours, mean ± SD” value is recorded as 56 ± 19 mg. Besides, in assay [1] (MAD day 14, 150 mg QD), the “24 hour Phe excretion, mean ± SD” value amounted to 72 ± 18 mg; the “Phe excreted from 0–8 hours, mean ± SD” value turned out to be 53 ± 16 mg; the “urine Phe excreted from 8–24 hours, mean ± SD” value was 20 ± 11 mg. In assay [1] (SAD 170 mg), the “Phe excreted in urine over a 24 hour period, mean ± SD” value was 142 ± 30 mg and the “increase in 24 hour urinary Phe vs placebo” value is “approximately 14 fold”. The “glutamine excreted in urine, mean ± SD” value in assay [1] (SAD 170 mg, Supplemental Figure 6) was 1,904 ± 541 mg. The same compound yielded a 50% inhibitory concentration (IC50) in assay [2] of 0.081 µM.
